Laboratory results as given in patent US20250353891A1 (MEDIMMUNE LIMITED, priority 2022, published 2025).
Starred links: 1 amine or outer side, 2 acyl side, 3 side chain; linkers in the order of their positions; H or OH if unused. Non-standard residues stand in square brackets, D forms with d. Residues, ends and D or L forms follow the SMILES beside them. Groups on a side chain read outwards from the residue. *: point of attachment. C20 diacid = O=C(O)CCCCCCCCCCCCCCCCCCC(=O)*; C18 diacid = O=C(O)CCCCCCCCCCCCCCCCC(=O)*; γGlu = O=C(O)[C@H](CCC(=O)[*:2])N[*:1]; αMeF = C[C@](N)(Cc1ccccc1)C(=O)O; AEEA = NCCOCCOCC(=O)O; Aib = CC(C)(N)C(=O)O

Legend:
[1] = molecular target: human GLP-1 receptor (hGLP-1R) (Homo sapiens, UniProt P43220); assay: cAMP production (HTRF) in CHO cells expressing hGLP-1R; assay type: cell-based; set-up: expressed in transfected cells; settings: for EC50: Table 6, peptides modified at position 17, cAMP in CHO hGLP-1R cells, geometric mean, read-out: hGLP-1R EC50; for % Relative Potency Ratio: Table 6, % GLP-1R activity relative to GLP-1 / % GlucR activity relative to glucagon
Summary of the method: (§1)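 Cells were resuspended in assay buffer at batch-optimized density, typically 1×10^5 cells/mL for hGLP-1R and 2×10^5 cells/mL for hGCGR. After 30 min incubation at room temperature with compound, cAMP was measured by two-step HTRF. EC50 values came from 4-parameter logistic fits of % Delta F.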

[2] = molecular target: human glucagon receptor (hGCGR) (Homo sapiens, UniProt P47871); assay: cAMP production (HTRF) in CHO cells expressing hGCGR; assay type: cell-based; set-up: expressed in transfected cells; settings: Table 6, peptides modified at position 17; cAMP in CHO hGCGR cells; geometric mean; read-out: hGluc-R EC50
Summary of the method: as §1

Chain of human glucagon receptor (hGCGR) (P47871 26-477): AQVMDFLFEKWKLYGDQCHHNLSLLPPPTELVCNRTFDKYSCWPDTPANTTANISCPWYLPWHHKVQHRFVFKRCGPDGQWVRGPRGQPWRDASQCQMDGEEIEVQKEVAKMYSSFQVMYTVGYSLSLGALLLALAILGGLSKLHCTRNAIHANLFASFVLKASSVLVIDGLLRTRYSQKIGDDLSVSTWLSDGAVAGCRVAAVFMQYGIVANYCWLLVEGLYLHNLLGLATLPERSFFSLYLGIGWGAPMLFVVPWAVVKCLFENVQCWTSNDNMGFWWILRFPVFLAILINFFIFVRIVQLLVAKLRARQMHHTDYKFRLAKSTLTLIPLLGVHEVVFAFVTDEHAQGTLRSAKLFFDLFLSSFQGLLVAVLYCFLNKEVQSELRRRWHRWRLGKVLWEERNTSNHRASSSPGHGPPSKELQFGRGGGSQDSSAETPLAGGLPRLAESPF
Chain of human GLP-1 receptor (hGLP-1R) (P43220 24-463): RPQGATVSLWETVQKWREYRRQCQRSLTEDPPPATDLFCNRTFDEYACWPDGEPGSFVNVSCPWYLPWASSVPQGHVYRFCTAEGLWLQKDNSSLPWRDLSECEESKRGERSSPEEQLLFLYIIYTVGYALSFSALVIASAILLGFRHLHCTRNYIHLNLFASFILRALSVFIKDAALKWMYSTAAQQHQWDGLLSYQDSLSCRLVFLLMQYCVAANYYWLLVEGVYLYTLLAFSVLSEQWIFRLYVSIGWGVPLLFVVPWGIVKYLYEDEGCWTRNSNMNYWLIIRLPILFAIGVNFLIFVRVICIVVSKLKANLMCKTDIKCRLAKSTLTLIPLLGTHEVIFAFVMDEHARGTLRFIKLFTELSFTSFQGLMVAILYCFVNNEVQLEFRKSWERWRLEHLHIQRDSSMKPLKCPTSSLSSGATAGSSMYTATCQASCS

Structure (SMILES) | EC50 [1] [pM] | % Relative Potency Ratio [1] | EC50 [2] [pM]
CC(C)C[C@H](NC(=O)[C@H](Cc1c[nH]c2ccccc12)NC(=O)[C@H](CCCNC(=N)N)NC(=O)[C@@H](NC(=O)[C@H](Cc1ccccc1)NC(=O)[C@H](CC(=O)O)NC(=O)[C@H](CCC(N)=O)NC(=O)[C@H](C)NC(=O)[C@H](CCCNC(=N)N)NC(=O)[C@H](CCCCNC(=O)COCCOCCNC(=O)COCCOCCNC(=O)CC[C@H](NC(=O)CCCCCCCCCCCCCCCCC(=O)O)C(=O)O)NC(=O)[C@@H](NC(=O)[C@H](CC(=O)O)NC(=O)[C@H](CC(C)C)NC(=O)[C@](C)(Cc1ccccc1)NC(=O)[C@H](CCCCN)NC(=O)[C@H](CO)NC(=O)[C@@H](NC(=O)[C@H](CC(=O)O)NC(=O)[C@H](CO)NC(=O)[C@@H](NC(=O)[C@H](Cc1ccccc1)NC(=O)[C@@H](NC(=O)CNC(=O)[C@H](CCC(N)=O)NC(=O)C(C)(C)NC(=O)[C@@H](N)Cc1c[nH]cn1)[C@@H](C)O)[C@@H](C)O)C(C)C)[C@@H](C)O)C(C)C)C(=O)N[C@@H](CC(C)C)C(=O)N[C@@H](CCC(=O)O)C(=O)NC(C)(C)C(=O)N[C@@H](CCCCN)C(N)=O [Peptide 478] (H-H[Aib]QGTFTSDVSK[αMeF]LDTK([AEEA-AEEA-γGlu-C18 diacid])RAQDFVRWLLE[Aib]K-NH2) | 9.18 | 40.9 | 190
CC(C)C[C@H](NC(=O)[C@H](Cc1c[nH]c2ccccc12)NC(=O)[C@H](CCCNC(=N)N)NC(=O)[C@@H](NC(=O)[C@H](Cc1ccccc1)NC(=O)[C@H](CC(=O)O)NC(=O)[C@H](CCC(N)=O)NC(=O)[C@H](C)NC(=O)[C@H](CCCNC(=N)N)NC(=O)[C@H](CCCCNC(=O)COCCOCCNC(=O)COCCOCCNC(=O)CC[C@H](NC(=O)CCCCCCCCCCCCCCCCCCC(=O)O)C(=O)O)NC(=O)[C@@H](NC(=O)[C@H](CC(=O)O)NC(=O)[C@H](CC(C)C)NC(=O)[C@](C)(Cc1ccccc1)NC(=O)[C@H](CCCCN)NC(=O)[C@H](CO)NC(=O)[C@@H](NC(=O)[C@H](CC(=O)O)NC(=O)[C@H](CO)NC(=O)[C@@H](NC(=O)[C@H](Cc1ccccc1)NC(=O)[C@@H](NC(=O)CNC(=O)[C@H](CCC(N)=O)NC(=O)C(C)(C)NC(=O)[C@@H](N)Cc1c[nH]cn1)[C@@H](C)O)[C@@H](C)O)C(C)C)[C@@H](C)O)C(C)C)C(=O)N[C@@H](CC(C)C)C(=O)N[C@@H](CCC(=O)O)C(=O)NC(C)(C)C(=O)N[C@@H](CCCCN)C(N)=O [Peptide 479] (H-H[Aib]QGTFTSDVSK[αMeF]LDTK([AEEA-AEEA-γGlu-C20 diacid])RAQDFVRWLLE[Aib]K-NH2; N-terminus assumed) | 34.2 | 12.0 | 207
CC(C)C[C@H](NC(=O)[C@H](Cc1c[nH]c2ccccc12)NC(=O)[C@H](CCC(N)=O)NC(=O)[C@@H](NC(=O)[C@H](Cc1ccccc1)NC(=O)[C@H](CC(=O)O)NC(=O)[C@H](CCCNC(=N)N)NC(=O)[C@H](C)NC(=O)[C@H](CCCNC(=N)N)NC(=O)[C@H](CCCCNC(=O)COCCOCCNC(=O)COCCOCCNC(=O)CC[C@H](NC(=O)CCCCCCCCCCCCCCCCC(=O)O)C(=O)O)NC(=O)[C@@H](NC(=O)[C@H](CC(=O)O)NC(=O)[C@H](CC(C)C)NC(=O)[C@](C)(Cc1ccccc1)NC(=O)[C@H](CCCCN)NC(=O)[C@H](CO)NC(=O)[C@@H](NC(=O)[C@H](CC(=O)O)NC(=O)[C@H](CO)NC(=O)[C@@H](NC(=O)[C@H](Cc1ccccc1)NC(=O)[C@@H](NC(=O)CNC(=O)[C@H](CCC(N)=O)NC(=O)C(C)(C)NC(=O)[C@@H](N)Cc1c[nH]cn1)[C@@H](C)O)[C@@H](C)O)C(C)C)[C@@H](C)O)C(C)C)C(=O)N[C@@H](CC(C)C)C(=O)N[C@@H](CCC(=O)O)C(=O)NC(C)(C)C(=O)N[C@@H](CCCCN)C(N)=O [Peptide 480] (H-H[Aib]QGTFTSDVSK[αMeF]LDTK([AEEA-AEEA-γGlu-C18 diacid])RARDFVQWLLE[Aib]K-NH2; N-terminus assumed) | 12.6 | 21.4 | 136
CC(C)C[C@H](NC(=O)[C@H](Cc1c[nH]c2ccccc12)NC(=O)[C@H](CCC(N)=O)NC(=O)[C@@H](NC(=O)[C@H](Cc1ccccc1)NC(=O)[C@H](CC(=O)O)NC(=O)[C@H](CCCNC(=N)N)NC(=O)[C@H](C)NC(=O)[C@H](CCCNC(=N)N)NC(=O)[C@H](CCCCNC(=O)COCCOCCNC(=O)COCCOCCNC(=O)CC[C@H](NC(=O)CCCCCCCCCCCCCCCCCCC(=O)O)C(=O)O)NC(=O)[C@@H](NC(=O)[C@H](CC(=O)O)NC(=O)[C@H](CC(C)C)NC(=O)[C@](C)(Cc1ccccc1)NC(=O)[C@H](CCCCN)NC(=O)[C@H](CO)NC(=O)[C@@H](NC(=O)[C@H](CC(=O)O)NC(=O)[C@H](CO)NC(=O)[C@@H](NC(=O)[C@H](Cc1ccccc1)NC(=O)[C@@H](NC(=O)CNC(=O)[C@H](CCC(N)=O)NC(=O)C(C)(C)NC(=O)[C@@H](N)Cc1c[nH]cn1)[C@@H](C)O)[C@@H](C)O)C(C)C)[C@@H](C)O)C(C)C)C(=O)N[C@@H](CC(C)C)C(=O)N[C@@H](CCC(=O)O)C(=O)NC(C)(C)C(=O)N[C@@H](CCCCN)C(N)=O [Peptide 481] (H-H[Aib]QGTFTSDVSK[αMeF]LDTK([AEEA-AEEA-γGlu-C20 diacid])RARDFVQWLLE[Aib]K-NH2; N-terminus assumed) | 52.2 | 13.3 | 350
CC(C)C[C@H](NC(=O)[C@H](Cc1c[nH]c2ccccc12)NC(=O)[C@H](CCC(N)=O)NC(=O)[C@@H](NC(=O)[C@H](Cc1ccccc1)NC(=O)[C@H](CC(=O)O)NC(=O)[C@H](CCC(N)=O)NC(=O)[C@H](C)NC(=O)[C@H](CCCNC(=N)N)NC(=O)[C@H](CCCCNC(=O)COCCOCCNC(=O)COCCOCCNC(=O)CC[C@H](NC(=O)CCCCCCCCCCCCCCCCC(=O)O)C(=O)O)NC(=O)[C@H](CO)NC(=O)[C@H](CCC(=O)O)NC(=O)[C@H](CC(C)C)NC(=O)[C@](C)(Cc1ccccc1)NC(=O)[C@H](CCCCN)NC(=O)[C@H](CO)NC(=O)[C@@H](NC(=O)[C@H](CC(=O)O)NC(=O)[C@H](CO)NC(=O)[C@@H](NC(=O)[C@H](Cc1ccccc1)NC(=O)[C@@H](NC(=O)CNC(=O)[C@H](CCC(N)=O)NC(=O)C(C)(C)NC(=O)[C@@H](N)Cc1c[nH]cn1)[C@@H](C)O)[C@@H](C)O)C(C)C)C(C)C)C(=O)N[C@@H](CC(C)C)C(=O)NC(C)(C)C(=O)N[C@@H](CCC(=O)O)C(=O)O [Peptide 482] (H-H[Aib]QGTFTSDVSK[αMeF]LESK([AEEA-AEEA-γGlu-C18 diacid])RAQDFVQWLL[Aib]E-OH; N-terminus assumed) | 190 | 7.2 | 691
CC(C)C[C@H](NC(=O)[C@H](Cc1c[nH]c2ccccc12)NC(=O)[C@H](CCC(N)=O)NC(=O)[C@@H](NC(=O)[C@H](Cc1ccccc1)NC(=O)[C@H](CC(=O)O)NC(=O)[C@H](CCC(N)=O)NC(=O)[C@H](C)NC(=O)[C@H](CCCNC(=N)N)NC(=O)[C@H](CCCCNC(=O)COCCOCCNC(=O)COCCOCCNC(=O)CC[C@H](NC(=O)CCCCCCCCCCCCCCCCC(=O)O)C(=O)O)NC(=O)[C@@H](NC(=O)[C@H](CC(=O)O)NC(=O)[C@H](CC(C)C)NC(=O)[C@](C)(Cc1ccccc1)NC(=O)[C@H](CCCCN)NC(=O)[C@H](CO)NC(=O)[C@@H](NC(=O)[C@H](CC(=O)O)NC(=O)[C@H](CO)NC(=O)[C@@H](NC(=O)[C@H](Cc1ccccc1)NC(=O)[C@@H](NC(=O)CNC(=O)[C@H](CCC(N)=O)NC(=O)C(C)(C)NC(=O)[C@@H](N)Cc1c[nH]cn1)[C@@H](C)O)[C@@H](C)O)C(C)C)[C@@H](C)O)C(C)C)C(=O)N[C@@H](CC(C)C)C(=O)NC(C)(C)C(=O)N[C@@H](CCC(=O)O)C(=O)O [Peptide 483] | 178 | 1.9 | 169
CC(C)C[C@H](NC(=O)[C@H](Cc1c[nH]c2ccccc12)NC(=O)[C@H](CCC(N)=O)NC(=O)[C@@H](NC(=O)[C@H](Cc1ccccc1)NC(=O)[C@H](CC(=O)O)NC(=O)[C@H](CCC(N)=O)NC(=O)[C@H](C)NC(=O)[C@H](CCCNC(=N)N)NC(=O)[C@H](CCCCNC(=O)COCCOCCNC(=O)COCCOCCNC(=O)CC[C@H](NC(=O)CCCCCCCCCCCCCCCCCCC(=O)O)C(=O)O)NC(=O)[C@@H](NC(=O)[C@H](CC(=O)O)NC(=O)[C@H](CC(C)C)NC(=O)[C@](C)(Cc1ccccc1)NC(=O)[C@H](CCCCN)NC(=O)[C@H](CO)NC(=O)[C@@H](NC(=O)[C@H](CC(=O)O)NC(=O)[C@H](CO)NC(=O)[C@@H](NC(=O)[C@H](Cc1ccccc1)NC(=O)[C@@H](NC(=O)CNC(=O)[C@H](CCC(N)=O)NC(=O)C(C)(C)NC(=O)[C@@H](N)Cc1c[nH]cn1)[C@@H](C)O)[C@@H](C)O)C(C)C)[C@@H](C)O)C(C)C)C(=O)N[C@@H](CC(C)C)C(=O)NC(C)(C)C(=O)N[C@@H](CCC(=O)O)C(=O)O [Peptide 484] (H-H[Aib]QGTFTSDVSK[αMeF]LDTK([AEEA-AEEA-γGlu-C20 diacid])RAQDFVQWLL[Aib]E-OH; N-terminus assumed) | 339 | 1.0 | 169
